IC50 data for 19 compounds are collected here from patent US10179771B2 (GALAPAGOS NV, priority 2014, dated 2019).

The target in assay [1] is T1, Recombinant human JAK3 catalytic domain (Homo sapiens, UniProt P52333).
T1 construct: Recombinant human JAK3 catalytic domain (amino acids 781-1124; catalog number PV3855); purchased Invitrogen PV3855
In words: JAK3 inhibition assay. The assay is classed as biochemical. As for the experimental part:
Recombinant human JAK3 catalytic domain (amino acids 781-1124; catalog number PV3855) was purchased from Invitrogen. 0.5 ng JAK3 protein was incubated with 2.5 μg polyGT substrate (Sigma catalog number P0275) in kinase reaction buffer (25 mM Tris pH 7.5, 0.5 mM EGTA, 10 mM MgCl2, 2.5 mM DTT, 0.5 mM Na3VO4, 5 mM b-glycerolphosphate, 0.01% Triton X-100, 1 μM non-radioactive ATP, […] ^33P-gamma-ATP (GE Healthcare, catalog number AH9968) final concentrations) with or without 5 μL containing test compound or vehicle (DMSO, 1% final concentration), in a total volume of 25 μL, in a polypropylene 96-well plate (Greiner, V-bottom). After 45 min at 30° C., reactions were stopped by adding 25 μL/well of 150 mM phosphoric acid. All of the terminated kinase reaction was transferred to prewashed (75 mM phosphoric acid) 96 well filter plates (Perkin Elmer catalog number 6005177) using a cell harvester (Perkin Elmer). Plates were washed 6 times with 300 μL per well of a 75 mM phosphoric acid solution and the bottom of the plates was sealed. 40 μL/well of Microscint-20 was added, the top of the plates was sealed and readout was performed using the Topcount (Perkin Elmer). Kinase activity was calculated by subtracting counts per min (cpm) obtained in the presence of a positive control inhibitor (10 μM staurosporine) from cpm obtained in the presence of vehicle. The ability of a test compound to inhibit this activity was determined as:
[formula] • RFU test compound=RFU determined for sample with test compound present • RFU control=RFU determined for sample with positive control inhibitor • RFU vehicle=RFU determined in the presence of vehicle
Dose dilution series were prepared for the compounds enabling the testing of dose-response effects in the JAK3 assay and the calculation of the IC50 for each compound. Each compound was routinely tested at concentration of 20 μM followed by a 1/5 serial dilution, 10 points in a final concentration of 1% DMSO. When potency of compound series increased, more dilutions were prepared and/or the top concentration was lowered (e.g. 5 μM, 1 μM).

In assay [2] the target is T2, Recombinant human TYK2 catalytic domain (Homo sapiens, UniProt P29597).
T2 construct: Recombinant human TYK2 catalytic domain (amino acids 871-1187; catalog number 08-147); purchased Carna biosciences 08-147
T2 sequence (P29597 871-1187): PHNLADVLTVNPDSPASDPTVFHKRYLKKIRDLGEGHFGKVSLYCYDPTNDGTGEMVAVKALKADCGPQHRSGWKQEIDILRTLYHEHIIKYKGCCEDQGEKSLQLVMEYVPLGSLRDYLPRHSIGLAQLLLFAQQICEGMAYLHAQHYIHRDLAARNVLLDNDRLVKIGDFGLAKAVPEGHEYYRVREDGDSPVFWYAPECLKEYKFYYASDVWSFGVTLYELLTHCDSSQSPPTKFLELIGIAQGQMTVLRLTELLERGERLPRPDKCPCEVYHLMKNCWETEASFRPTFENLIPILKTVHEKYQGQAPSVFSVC
In words: TYK2 inhibition assay. The assay is classed as biochemical. As for the experimental part:
Recombinant human TYK2 catalytic domain (amino acids 871-1187; catalog number 08-147) was purchased from Carna biosciences. 5 ng of TYK2 was incubated with 12.5 μg polyGT substrate (Sigma catalog number P0275) in kinase reaction buffer (25 mM Hepes pH 7.2, 50 mM NaCl, 0.5 mM EDTA, 1 mM DTT, 5 mM MnCl2, 10 mM MgCl2, 0.1% Brij-35, 0.1 μM non-radioactive ATP, 0.125 μCi ^33P-gamma-ATP (GE Healthcare, catalog number AH9968) final concentrations) with or without 5 μL containing test compound or vehicle (DMSO, 1% final concentration), in a total volume of 25 μL, in a polypropylene 96-well plate (Greiner, V-bottom). After 90 min at 30° C., reactions were stopped by adding 25 μL/well of 150 mM phosphoric acid. All of the terminated kinase reaction was transferred to prewashed (75 mM phosphoric acid) 96 well filter plates (Perkin Elmer catalog number 6005177) using a cell harvester (Perkin Elmer). Plates were washed 6 times with 300 μL per well of a 75 mM phosphoric acid solution and the bottom of the plates was sealed. 40 μL/well of Microscint-20 was added, the top of the plates was sealed and readout was performed using the Topcount (Perkin Elmer). Kinase activity was calculated by subtracting counts per min (cpm) obtained in the presence of a positive control inhibitor (10 μM staurosporine) from cpm obtained in the presence of vehicle. The ability of a test compound to inhibit this activity was determined as: Percentage inhibition=((cpm determined for sample with test compound present−cpm determined for sample with positive control inhibitor) divided by (cpm determined in the presence of vehicle−cpm determined for sample with positive control inhibitor))*100.
Dose dilution series were prepared for the compounds enabling the testing of dose-response effects in the TYK2 assay and the calculation of the IC50 for each compound. Each compound was routinely tested at concentration of 20 μM followed by a 1/3 serial dilution, 8 points (20 μM-6.67 μM-2.22 μM-740 nM-247 nM-82 nM-27 nM-9 nM) in a final concentration of 1% DMSO. When potency of compound series increased, more dilutions were prepared and/or the top concentration was lowered (e.g. 5 μM, 1 μM).

[3] abbreviates: Illustrative Compounds of the invention (Table IX).
Setting [4] is: Illustrative Compounds of the invention (Table XI).

Some results are limits rather than exact numbers.

T1 sequence (P52333 781-1124): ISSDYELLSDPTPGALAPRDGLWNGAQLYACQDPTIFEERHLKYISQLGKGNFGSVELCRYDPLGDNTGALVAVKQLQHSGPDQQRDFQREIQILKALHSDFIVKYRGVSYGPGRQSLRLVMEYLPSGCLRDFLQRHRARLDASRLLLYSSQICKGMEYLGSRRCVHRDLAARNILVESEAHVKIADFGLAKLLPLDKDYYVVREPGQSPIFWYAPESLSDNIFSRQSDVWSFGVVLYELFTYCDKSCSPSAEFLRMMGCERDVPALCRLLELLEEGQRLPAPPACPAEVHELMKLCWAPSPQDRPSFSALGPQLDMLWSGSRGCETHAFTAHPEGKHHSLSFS

As a reminder, the IC50 is the concentration that gives 50% inhibition. Take `CCc1cc(S(C)(=O)=O)ncc1N(C)c1cc(NC(=O)C2CC2)c2ncn(C)c2c1` [Cpd 18, N-[6-[(4-ethyl-6-methylsulfonyl-3-pyridyl)-methyl-amino]-1-methyl-benzimidazol-4-yl]cyclopropanecarboxamide]: the IC50 in assay [1] (setting [3]) lay in the range of 100 to 500 nM; in assay [2] (setting [4]), 0.1 to 50 nM.
With `Cc1cc(S(C)(=O)=O)cc(F)c1N(C)c1cc(NC(=O)C2CC2)c2ncn(C)c2c1` [Cpd 19, N-[6-(2-fluoro-N,6-dimethyl-4-methylsulfonyl-anilino)-1-methyl-benzimidazol-4-yl]cyclopropanecarboxamide], the half-inhibitory concentration (IC50) in assay [1] (setting [3]) lay within 50 to 100 nM; in assay [2] (setting [4]), 0.1 to 50 nM.
In the same order, the values of `Cc1cc(C#N)ncc1Oc1cc(NC(=O)[C@H]2C[C@H]2F)c2ncn(C)c2c1` [Cpd 20, (1R,2R)-N-[6-[(6-cyano-4-methyl-3-pyridyl)oxy]-1-methyl-benzimidazol-4-yl]-2-fluoro-cyclopropanecarboxamide] are over 500 nM and 0.1 to 50 nM.
For `Cc1cc(C#N)nc(F)c1N(C)c1cc(NC(=O)[C@H]2C[C@H]2F)c2ncn(C)c2c1` [Cpd 21, (1R,2R)-N-[6-[(6-cyano-2-fluoro-4-methyl-3-pyridyl)-methyl-amino]-1-methyl-benzimidazol-4-yl]-2-fluoro-cyclopropanecarboxamide] the same measures were 50 to 100 nM and 0.1 to 50 nM.
Take `Cc1cnc(C#N)c(F)c1N(C)c1cc(NC(=O)[C@H]2C[C@H]2F)c2ncn(C)c2c1` [Cpd 22, (1R,2R)-N-[6-[(2-cyano-3-fluoro-5-methyl-4-pyridyl)-methyl-amino]-1-methyl-benzimidazol-4-yl]-2-fluoro-cyclopropanecarboxamide]: the values for the IC50 in assay [1] (setting [3]) and in assay [2] (setting [4]) were 100 to 500 nM and 0.1 to 50 nM, respectively.
In the case of `Cc1cc(C#N)ncc1Oc1cc(NC(=O)C2CC2)c2ncn(C)c2c1` [Cpd 23, N-[6-[(6-cyano-4-methyl-3-pyridyl)oxy]-1-methyl-benzimidazol-4-yl]cyclopropanecarboxamide], the figures for the IC50 in assay [1] (setting [3]) and in assay [2] (setting [4]) were over 500 nM and 0.1 to 50 nM, respectively.
`CCc1cc(C(N)=O)ncc1N(C)c1cc(NC(=O)C2CC2)c2ncn(C)c2c1` [Cpd 24, 5-((4-(cyclopropanecarboxamido)-1-methyl-1H-benzo[d]imidazol-6-yl)(methyl)amino)-4-ethylpicolinamide]: the IC50 lay within 100 to 500 nM in assay [1] (setting [3]) and 0.1 to 50 nM in assay [2] (setting [4]).
Turning to `CCc1cc(C(N)=O)ncc1N(C)c1cc(NC(=O)[C@H]2C[C@H]2F)c2ncn(C)c2c1` [Cpd 25, 4-ethyl-5-((4-((1R,2R)-2-fluorocyclopropanecarboxamido)-1-methyl-1H-benzo[d]imidazol-6-yl)(methyl)amino)picolinamide], the IC50 in assay [1] (setting [3]) is 100 to 500 nM; in assay [2] (setting [4]), 0.1 to 50 nM.
For `Cc1cc(S(C)(=O)=O)ccc1N(C)c1cc(NC(=O)[C@H]2C[C@H]2F)c2ncn(C)c2c1` [Cpd 26, (1R,2R)-N-[6-(N,2-dimethyl-4-methylsulfonyl-anilino)-1-methyl-benzimidazol-4-yl]-2-fluoro-cyclopropanecarboxamide], the IC50 in assay [1] (setting [3]) fell in the range of 100 to 500 nM; in assay [2] (setting [4]), 0.1 to 50 nM.
Consider `CCS(=O)(=O)c1ccc(N(C)c2cc(NC(=O)[C@H]3C[C@H]3F)c3ncn(C)c3c2)c(C)c1` [Cpd 27, (1R,2R)-N-[6-(4-ethylsulfonyl-N,2-dimethyl-anilino)-1-methyl-benzimidazol-4-yl]-2-fluoro-cyclopropanecarboxamide], for which the IC50 in assay [1] (setting [3]) lay in the range of 100 to 500 nM; in assay [2] (setting [4]) it was 0.1 to 50 nM.
Regarding `Cc1cc(C#N)ncc1Oc1cc(N)c2ncn(C)c2c1` [Cpd 28, 5-(7-amino-3-methyl-benzimidazol-5-yl)oxy-4-methyl-pyridine-2-carbonitrile], the IC50 in assay [1] (setting [3]) was over 500 nM; in assay [2] (setting [4]), 100 to 500 nM.
Regarding `CCc1cc(S(C)(=O)=O)ncc1Oc1cc(NC(=O)C2CC2)c2ncn(C)c2c1` [Cpd 29, N-[6-[(4-ethyl-6-methylsulfonyl-3-pyridyl)oxy]-1-methyl-benzimidazol-4-yl]cyclopropanecarboxamide], the values for the IC50 in assay [1] (setting [3]) and in assay [2] (setting [4]) were over 500 nM and 100 to 500 nM, respectively.
In the same order, the values of `Cc1cc(C(N)=O)ncc1Oc1cc(NC(=O)[C@H]2C[C@H]2F)c2ncn(C)c2c1` [Cpd 32, 5-[7-[[(1R,2R)-2-fluorocyclopropanecarbonyl]amino]-3-methyl-benzimidazol-5-yl]oxy-4-methyl-pyridine-2-carboxamide] are over 500 nM and 50 to 100 nM.
For `CNc1cc(Oc2cnc(C#N)cc2C)cc2c1ncn2C` [Cpd 34, 4-methyl-5-[3-methyl-7-(methylamino)benzimidazol-5-yl]oxy-pyridine-2-carbonitrile] the same measures were over 500 nM and over 500 nM.
As for `Cc1cc(C#N)ncc1Oc1cc(N(C)C)c2ncn(C)c2c1` [Cpd 35, 5-[7-(dimethylamino)-3-methyl-benzimidazol-5-yl]oxy-4-methyl-pyridine-2-carbonitrile], the IC50 in assay [1] (setting [3]) and in assay [2] (setting [4]) was over 500 nM each time.
For `Cc1cc(C#N)ncc1Oc1cc(NC(=O)N2CC(O)C2)c2ncn(C)c2c1` [Cpd 36, N-[6-[(6-cyano-4-methyl-3-pyridyl)oxy]-1-methyl-benzimidazol-4-yl]-3-hydroxy-azetidine-1-carboxamide], the IC50 in assay [1] (setting [3]) and in assay [2] (setting [4]) was over 500 nM in each case.
In the case of `Cc1cc(C#N)ncc1Oc1cc(NC(=O)N2CCOCC2)c2ncn(C)c2c1` [Cpd 37, N-[6-[(6-cyano-4-methyl-3-pyridyl)oxy]-1-methyl-benzimidazol-4-yl]morpholine-4-carboxamide], the IC50 in assay [1] (setting [3]) and in assay [2] (setting [4]) was over 500 nM each time.
For `Cc1cc(C#N)ncc1Oc1cc(NC(=O)NC(C)C)c2ncn(C)c2c1` [Cpd 38, 1-[6-[(6-cyano-4-methyl-3-pyridyl)oxy]-1-methyl-benzimidazol-4-yl]-3-isopropyl-urea], the IC50 was over 500 nM in assay [1] (setting [3]) and 100 to 500 nM in assay [2] (setting [4]).
In the case of `CN(c1cc2c(cn1)ncn2C)c1ccc(C#N)cc1F` [D, reference compound], the IC50 in assay [1] (Comparative Compounds (Table X)) and in assay [2] (Comparative Compounds (Table XII)) was over 500 nM each time.
